# According to ChEMBL document CHEMBL6083262, “Stereorandomized Oncocins with Preserved Ribosome Binding and Antibacterial Activity” (J Med Chem, 2024):
# Active and inactive are the calls of the source. The rule behind the calls is not given here. Non-standard residues stand in square brackets, D forms with d. Residues, ends and D or L forms follow the SMILES beside them. ξ: configuration not given here. ξY = NC(Cc1ccc(O)cc1)C(=O)O; ξR = N=C(N)NCCCC(N)C(=O)O; ξN = NC(=O)CC(N)C(=O)O; ξI = CCC(C)C(N)C(=O)O; ξP = O=C(O)C1CCCN1
# Experiments:
# Escherichia coli [1] = assay: Antimicrobial activity against Escherichia coli W3110 incubated for 16 to 20 hrs in full muller hinton medium by broth microdilution method; format: functional; conditions: time 16-20 hrs
# Klebsiella pneumoniae [2] = assay: Antimicrobial activity against Klebsiella pneumoniae NCTC 418 incubated for 16 to 20 hrs in full muller hinton medium by broth microdilution method; format: functional; conditions: time 16-20 hrs
# Pseudomonas aeruginosa [3] = assay: Antimicrobial activity against Pseudomonas aeruginosa PAO1 incubated for 16 to 20 hrs in full muller hinton medium by broth microdilution method; format: functional; conditions: time 16-20 hrs
# Acinetobacter baumannii [4] = assay: Antimicrobial activity against Acinetobacter baumannii ATCC 19606 incubated for 16 to 20 hrs in full muller hinton medium by broth microdilution method; format: functional; conditions: time 16-20 hrs
# Staphylococcus aureus [5] = assay: Antimicrobial activity against methicillin-resistant Staphylococcus aureus COL incubated for 16 to 20 hrs in full muller hinton medium by broth microdilution method; format: functional; conditions: time 16-20 hrs
# Klebsiella pneumoniae [6] = assay: Antimicrobial activity against Klebsiella pneumoniae NCTC 418 incubated for 16 to 20 hrs in 12.5 % muller hinton medium by broth microdilution method; format: functional; conditions: time 16-20 hrs
# Pseudomonas aeruginosa [7] = assay: Antimicrobial activity against Pseudomonas aeruginosa PAO1 incubated for 16 to 20 hrs in 12.5 % muller hinton medium by broth microdilution method; format: functional; conditions: time 16-20 hrs
# Acinetobacter baumannii [8] = assay: Antimicrobial activity against Acinetobacter baumannii ATCC 19606 incubated for 16 to 20 hrs in 12.5 % muller hinton medium by broth microdilution method; format: functional; conditions: time 16-20 hrs
# Staphylococcus aureus [9] = assay: Antimicrobial activity against methicillin-resistant Staphylococcus aureus COL incubated for 16 to 20 hrs in 12.5 % muller hinton medium by broth microdilution method; format: functional; conditions: time 16-20 hrs
# [10] = Hemolytic activity in human RBC incubated for 4 hrs; format: toxicity, cell-based; conditions: erythrocyte
# rRNA = assay: Binding affinity to [gamma32 P-ATP] labeled Escherichia coli MG1655 23S ribosomal RNA (5-CCCTTGGGACCTACTTC-3') at U2506 position assessed as increase in band intensity at 1 uM incubated for 2.5 hrs in full muller hinton medium by CMCT based gel electrophoresis; format: nucleic-acid assay
# Pseudomonas aeruginosa [11] = assay: Antibacterial activity against multidrug-resistant Pseudomonas aeruginosa PA14 incubated for 16 to 20 hrs in full muller hinton medium by broth microdilution method; format: functional; conditions: time 16-20 hrs
# Pseudomonas aeruginosa [12] = assay: Antibacterial activity against multidrug-resistant Pseudomonas aeruginosa PA14 incubated for 16 to 20 hrs in 12.5 % muller hinton medium by broth microdilution method; format: functional; conditions: time 16-20 hrs
# Pseudomonas aeruginosa [13] = assay: Antibacterial activity against multidrug-resistant Pseudomonas aeruginosa PA14 4.13 harboring phoQ mutant incubated for 16 to 20 hrs in full muller hinton medium by broth microdilution method; format: functional; conditions: time 16-20 hrs
# Pseudomonas aeruginosa [14] = assay: Antibacterial activity against multidrug-resistant Pseudomonas aeruginosa PA14 4.13 harboring phoQ mutant incubated for 16 to 20 hrs in 12.5 % muller hinton medium by broth microdilution method; format: functional; conditions: time 16-20 hrs
# Pseudomonas aeruginosa [15] = assay: Antibacterial activity against multidrug-resistant Pseudomonas aeruginosa PA14 4.18 harboring pmrB mutant incubated for 16 to 20 hrs in full muller hinton medium by broth microdilution method; format: functional; conditions: time 16-20 hrs
# Pseudomonas aeruginosa [16] = assay: Antibacterial activity against multidrug-resistant Pseudomonas aeruginosa PA14 4.18 harboring pmrB mutant incubated for 16 to 20 hrs in 12.5 % muller hinton medium by broth microdilution method; format: functional; conditions: time 16-20 hrs
# Pseudomonas aeruginosa [17] = assay: Antibacterial activity against multidrug-resistant Pseudomonas aeruginosa PA14 2P4 harboring pmrB mutant incubated for 16 to 20 hrs in full muller hinton medium by broth microdilution method; format: functional; conditions: time 16-20 hrs
# Pseudomonas aeruginosa [18] = assay: Antibacterial activity against multidrug-resistant Pseudomonas aeruginosa clinical isolate ZEM-1A incubated for 16 to 20 hrs in full muller hinton medium by broth microdilution method; format: functional; conditions: time 16-20 hrs
# Pseudomonas aeruginosa [19] = assay: Antibacterial activity against multidrug-resistant Pseudomonas aeruginosa clinical isolate ZEM-1A incubated for 16 to 20 hrs in 12.5 % muller hinton medium by broth microdilution method; format: functional; conditions: time 16-20 hrs
# Pseudomonas aeruginosa [20] = assay: Antibacterial activity against multidrug-resistant Pseudomonas aeruginosa clinical isolate ZEM9A incubated for 16 to 20 hrs in full muller hinton medium by broth microdilution method; format: functional; conditions: time 16-20 hrs
# Pseudomonas aeruginosa [21] = assay: Antibacterial activity against multidrug-resistant Pseudomonas aeruginosa clinical isolate ZEM9A incubated for 16 to 20 hrs in 12.5 % muller hinton medium by broth microdilution method; format: functional; conditions: time 16-20 hrs
# Klebsiella pneumoniae [22] = assay: Antibacterial activity against multidrug-resistant Klebsiella pneumoniae clinical isolate OXA-48 incubated for 16 to 20 hrs in full muller hinton medium by broth microdilution method; format: functional; conditions: time 16-20 hrs
# Klebsiella pneumoniae [23] = assay: Antibacterial activity against multidrug-resistant Klebsiella pneumoniae clinical isolate OXA-48 incubated for 16 to 20 hrs in 12.5 % muller hinton medium by broth microdilution method; format: functional; conditions: time 16-20 hrs
# Enterobacter cloacae [24] = assay: Antibacterial activity against multidrug-resistant Enterobacter cloacae incubated for 16 to 20 hrs in full muller hinton medium by broth microdilution method; format: functional; conditions: time 16-20 hrs
# Escherichia coli [25] = assay: Bacteriostatic activity against Escherichia coli at 8 times MIC in full muller hinton medium by Time-kill assay; format: functional, organism-based
# Klebsiella pneumoniae [26] = assay: Bacteriostatic activity against Klebsiella pneumoniae at 8 times MIC in full muller hinton medium by Time-kill assay; format: functional, organism-based
# Escherichia coli [27] = assay: Bacteriostatic activity against Escherichia coli assessed as detachment of inner membrane from outer membrane by measuring a large void at 8 times MIC in full muller hinton medium by transmission electron microscopic analysis; format: functional, organism-based
# Klebsiella pneumoniae [28] = assay: Bacteriostatic activity against Klebsiella pneumoniae assessed as detachment of inner membrane from outer membrane by measuring a large void at 8 times MIC in full muller hinton medium by transmission electron microscopic analysis; format: functional, organism-based
# Escherichia coli [29] = assay: Bacteriostatic activity against Escherichia coli assessed as small intracellular vesicles at 8 times MIC in full muller hinton medium by transmission electron microscopic analysis; format: functional, organism-based
# Klebsiella pneumoniae [30] = assay: Bacteriostatic activity against Klebsiella pneumoniae assessed as small intracellular vesicles at 8 times MIC in full muller hinton medium by transmission electron microscopic analysis; format: functional, organism-based
# Escherichia coli [31] = assay: Bacteriostatic activity against Escherichia coli assessed as membrane perturbation at 8 times MIC in full muller hinton medium by transmission electron microscopic analysis; format: functional, organism-based
# Klebsiella pneumoniae [32] = assay: Bacteriostatic activity against Klebsiella pneumoniae assessed as membrane perturbation at 8 times MIC in full muller hinton medium by transmission electron microscopic analysis; format: functional, organism-based
# Enterobacter cloacae [33] = assay: Antibacterial activity against multidrug-resistant Enterobacter cloacae incubated for 16 to 20 hrs in 12.5 % muller hinton medium by broth microdilution method; format: functional; conditions: time 16-20 hrs
# Lipid bilayer [34] = assay: Induction of membrane disruption in egg yolk phosphatidyl glycerol at 10 ug/ml by measuring vesicle leakage; conditions: dose 10.0 µg/ml
# Lipid bilayer [35] = assay: Induction of membrane disruption in egg yolk phosphatidyl choline at 10 ug/ml by measuring vesicle leakage; conditions: dose 10.0 µg/ml
SMILES,MIC (Escherichia coli [1]) [µg/mL],MIC (Staphylococcus aureus [5]) [µg/mL],MIC (Pseudomonas aeruginosa [7]) [µg/mL],MIC (Staphylococcus aureus [9]) [µg/mL],MHC [10] [µg/mL],Activity (rRNA),MIC (Pseudomonas aeruginosa [11]) [µg/mL],MIC (Pseudomonas aeruginosa [17]) [µg/mL],MIC (Pseudomonas aeruginosa [20]) [µg/mL],MIC (Enterobacter cloacae [24]) [µg/mL],Activity (Escherichia coli [25]),Activity (Klebsiella pneumoniae [26]),Activity (Escherichia coli [27]),Activity (Klebsiella pneumoniae [28]),Activity (Escherichia coli [29]),Activity (Klebsiella pneumoniae [30]),Activity (Escherichia coli [31]),Activity (Klebsiella pneumoniae [32]),Activity (Lipid bilayer [34]),Activity (Lipid bilayer [35]),other results
CC[C@H](C)[C@H](NC(=O)[C@H](CCCNC(=N)N)NC(=O)[C@H](CCCNC(=N)N)NC(=O)[C@@H]1CCCN1C(=O)[C@@H]1CCCN1C(=O)[C@H](CCCNC(=N)N)NC(=O)[C@@H]1CCCN1C(=O)[C@H](CCCNC(=N)N)NC(=O)[C@@H]1CCCN1C(=O)[C@@H](CC(C)C)NC(=O)[C@H](Cc1ccc(O)cc1)NC(=O)[C@@H]1CCCN1C(=O)[C@@H]1CCCN1C(=O)[C@H](CCCCN)NC(=O)[C@H](CC(=O)O)NC(=O)[C@@H](N)C(C)C)C(=O)N[C@@H](Cc1ccc(O)cc1)C(=O)N[C@@H](CC(N)=O)C(=O)N[C@@H](CCCNC(=N)N)C(N)=O (H-VDKPPY[dL]PRPRPPRRIYNR-NH2),> 64,> 64,> 16,> 64,> 1000,inactive,> 32,> 64,> 64,> 64,–,–,–,–,–,–,–,–,–,–,MIC (Klebsiella pneumoniae [2]): > 64 µg/mL; MIC (Pseudomonas aeruginosa [3]): > 64 µg/mL; MIC (Acinetobacter baumannii [4]): > 64 µg/mL; MIC (Klebsiella pneumoniae [6]): > 16 µg/mL; MIC (Acinetobacter baumannii [8]): > 16 µg/mL; MIC (Pseudomonas aeruginosa [12]): > 32 µg/mL; MIC (Pseudomonas aeruginosa [13]): > 32 µg/mL; MIC (Pseudomonas aeruginosa [14]): > 32 µg/mL; MIC (Pseudomonas aeruginosa [15]): > 32 µg/mL; MIC (Pseudomonas aeruginosa [16]): > 32 µg/mL; MIC (Pseudomonas aeruginosa [18]): > 64 µg/mL; MIC (Pseudomonas aeruginosa [19]): > 64 µg/mL; MIC (Pseudomonas aeruginosa [21]): > 64 µg/mL; MIC (Klebsiella pneumoniae [22]): > 64 µg/mL; MIC (Klebsiella pneumoniae [23]): > 64 µg/mL
CCC(C)C(NC(=O)C(CCCNC(=N)N)NC(=O)C(CCCNC(=N)N)NC(=O)C1CCCN1C(=O)C1CCCN1C(=O)[C@H](CCCNC(=N)N)NC(=O)[C@@H]1CCCN1C(=O)[C@H](CCCNC(=N)N)NC(=O)[C@@H]1CCCN1C(=O)[C@H](CC(C)C)NC(=O)[C@H](Cc1ccc(O)cc1)NC(=O)[C@@H]1CCCN1C(=O)[C@@H]1CCCN1C(=O)[C@H](CCCCN)NC(=O)[C@H](CC(=O)O)NC(=O)[C@@H](N)C(C)C)C(=O)NC(Cc1ccc(O)cc1)C(=O)NC(CC(N)=O)C(=O)NC(CCCNC(=N)N)C(N)=O (stereo not given in full) (H-VDKPPYLPRPR[ξP][ξP][ξR][ξR][ξI][ξY][ξN][ξR]-NH2),–,> 64,–,> 16,> 1000,Active,> 64,> 64,> 64,> 64,Active,Active,Active,Active,Active,Active,Active; Few Membrane Perturbation Observed,Active; Few Membrane Perturbation Observed,Active,Active,MIC (Enterobacter cloacae [33]): 0.5 µg/mL
CCC(C)C(NC(=O)C(CCCNC(=N)N)NC(=O)[C@H](CCCNC(=N)N)NC(=O)[C@@H]1CCCN1C(=O)[C@@H]1CCCN1C(=O)[C@H](CCCNC(=N)N)NC(=O)[C@@H]1CCCN1C(=O)[C@H](CCCNC(=N)N)NC(=O)[C@@H]1CCCN1C(=O)[C@H](CC(C)C)NC(=O)[C@H](Cc1ccc(O)cc1)NC(=O)[C@@H]1CCCN1C(=O)[C@@H]1CCCN1C(=O)[C@H](CCCCN)NC(=O)[C@H](CC(=O)O)NC(=O)[C@@H](N)C(C)C)C(=O)NC(Cc1ccc(O)cc1)C(=O)NC(CC(N)=O)C(=O)NC(CCCNC(=N)N)C(N)=O (stereo not given in full) (H-VDKPPYLPRPRPPR[ξR][ξI][ξY][ξN][ξR]-NH2),4,> 64,8,> 16,> 1000,Active,> 64,> 64,> 64,–,Active,Active,Active,Active,Active,Active,Active; Few Membrane Perturbation Observed,Active; Few Membrane Perturbation Observed,Active,Active,MIC (Enterobacter cloacae [33]): 1 µg/mL
CCC(C)C(NC(=O)C(CCCNC(=N)N)NC(=O)C(CCCNC(=N)N)NC(=O)C1CCCN1C(=O)C1CCCN1C(=O)C(CCCNC(=N)N)NC(=O)[C@@H]1CCCN1C(=O)[C@H](CCCNC(=N)N)NC(=O)[C@@H]1CCCN1C(=O)[C@H](CC(C)C)NC(=O)[C@H](Cc1ccc(O)cc1)NC(=O)[C@@H]1CCCN1C(=O)[C@@H]1CCCN1C(=O)[C@H](CCCCN)NC(=O)[C@H](CC(=O)O)NC(=O)[C@@H](N)C(C)C)C(=O)NC(Cc1ccc(O)cc1)C(=O)NC(CC(N)=O)C(=O)NC(CCCNC(=N)N)C(N)=O (stereo not given in full) (H-VDKPPYLPRP[ξR][ξP][ξP][ξR][ξR][ξI][ξY][ξN][ξR]-NH2),–,> 64,–,–,> 1000,Active,> 64,> 64,> 64,–,Active,Active,Active,Active,Active,Active,Active; Few Membrane Perturbation Observed,Active; Few Membrane Perturbation Observed,Active,Active,–
